# Results taken from publication PMC2897767, “Two Distinct Mechanisms for Actin Capping Protein Regulation—Steric and Allosteric Inhibition” (PLoS Biology, 2010).
# “Also recorded” adds a separate entry of the source. Where no end group is shown, it is not given here.
# Experiments:
# CP [1] = assay: SPR binding of CP to immobilized GST-CD2AP / GST-CARMIL fragments; set-up: species or system chicken; conditions: 20°C; for kon / koff: SPR (Biacore), CP perfused, 1:1 binding model; for kon: GST-fusion immobilized via anti-GST antibody on CM5 chip, 50 mM KCl, 1 mM MgCl2, 0.005% Tween-20, 10 mM imidazole pH 7.0; for koff: GST-fusion immobilized
# Procedure: Expression vectors for chicken CPfull and CPΔβC were constructed in pETDuet-1 by PCR, using pET-3d/CP [38] as the template. CP was expressed in E. coli Rosetta2 (DE3) and was purified as described. V-1 (human), expressed in E. coli Rosetta2 (DE3) as a GST-fusion protein, was affinity-purified and the tag was removed. Synthetic peptides derived from CARMIL proteins were obtained from Invitrogen. For crystallization, CP was incubated with a 1.2–2.0-fold molar excess of V-1 or CARMIL peptides at 4°C for 2 h, followed by gel filtration to purify the complexes. Expression vectors for the GST-CA constructs were prepared from the mouse cDNA clone as previously described. Vectors for GST-CD fragments were constructed by PCR cloning using a human whole brain cDNA library (Clontech) as the template. Amplified DNA fragments were cloned into pGEX-6P-1. GST-fusion proteins were expressed in E. coli Rosetta2 (DE3) cells and affinity-purified using glutathione sepharose resin. Mutations were introduced using a Quikchange mutagenesis kit (Stratagene). Actin was prepared from rabbit skeletal muscle, as previously described, and was further purified by gel filtration chromatography. Pyrene labeled-actin was prepared as described. Spectrin-actin seeds were prepared from rabbit red blood cells, as previously described.
# (§1) The binding affinities of CP for V-1 or CARMIL proteins were evaluated by surface plasmon resonance measurements with Biacore 3000 or Biacore 2000 instruments (GE Healthcare). GST-fusion proteins (GST-V-1, GST-CA, or GST-CD) were immobilized onto a CM5 sensor chip up to 200 RU (response units; 200 pg/mm^2) via anti-GST antibodies. CP at various concentrations in running buffer (50 mM KCl, 1 mM MgCl2, 0.005% Tween-20, 10 mM imidazole, pH 7.0) was perfused over the chip at 20°C, at a flow rate of 20 µl/min. Response curves were obtained by subtracting the background signal generated simultaneously on a control flow cell with immobilized GST. To measure the effect of the CARMIL peptides on the facilitation of CP/V-1 dissociation (in Figure 11C and 11D), we used the “co-inject” mode for successive injections of the peptides followed by CP. Kinetic parameters were determined by fitting the sensorgrams to a simple 1∶1 binding model, using the Bia-evaluation software (GE Healthcare). KD values were obtained from the kinetic rate constants. […] KD values were evaluated by plotting these values against the concentrations of CP.
# CPfull (CP wt) = assay: SPR binding of CP to immobilized V-1; set-up: species or system chicken; conditions: V-1 mutant immobilized, analyte CP wt, equilibrium KD from Michaelis-Menten plots at saturated binding, not detectable = no binding at highest concentrations tested (≥ 50 µM)
# Procedure: as §1
# ^a Kinetic parameters were determined by fitting of the sensorgrams to a 1:1 binding model. KD = koff / kon .
# ^b Kinetic parameters were not determined for mutant proteins, due to the fast dissociation of the complex (koff > 0.1 s^-1). […]
# CPfull (wild type CP) = assay: Actin polymerization assay (barbed end elongation from spectrin-actin seeds): inhibition of CP capping; format: biochemical, chicken; conditions: actin 1.2 µM (5% pyrene-labeled); for inhibition of CP capping activity by V-1 proteins: 3 nM wild type CP, various concentrations of V-1, 25°C (Figure S2); for inhibition of barbed end capping by CARMIL peptides: 3.6 nM CPfull, various peptide concentrations, 25°C (Figure 9D)
# Procedure: (A) Superposition of the C-termini of the peptides. CD Phe505 and CK Arg169 are shown as stick models. The conserved proline at the C-terminus of the motifs is shown as balls. (B) CD2AP constructs used for biochemical assays. (C) CARMIL constructs used for biochemical assays. […] Actin (1.2 µM, 5% pyrene-labeled) was polymerized from spectrin-actin seeds in the presence of 3.6 nM CPfull (D), 10 nM CPβΔC (E), or 7.2 nM CPfull (F) with various concentrations of CARMIL peptides or GST-CA constructs.
# The barbed end elongation assay from spectrin-actin seeds was performed essentially as previously described. Briefly, G-actin was stored in G-buffer (0.2 mM CaCl2, 0.2 mM ATP, 0.5 mM DTT and 10 mM imidazole, pH 7.0). At 90 s prior to polymerization, the Ca^2+ was replaced with Mg^2+, by the addition of 1/10 volume of 10 mM EGTA and 1 mM MgCl2 to G-actin. […] Actin polymerization was measured by monitoring the pyrene-actin fluorescence (excitation 370 nm; emission 410 nm) at 25°C.
# (0.16 MB TIF) Click here for additional data file.
# [2] = system: CP wt / GST-V-1 interaction; assay: SPR assay of the effect of CARMIL peptides on CP/V-1 binding; set-up: species or system chicken CP, human V-1
# Procedure: GST-V-1 was immobilized on a sensor chip.
# (§2) GST-fusion proteins (GST-V-1, GST-CA, or GST-CD) were immobilized onto a CM5 sensor chip up to 200 RU (response units; 200 pg/mm^2) via anti-GST antibodies. […] Response curves were obtained by subtracting the background signal generated simultaneously on a control flow cell with immobilized GST. […] Kinetic parameters were determined by fitting the sensorgrams to a simple 1∶1 binding model, using the Bia-evaluation software (GE Healthcare). KD values were obtained from the kinetic rate constants.
# CP [3] = assay: SPR competition with immobilized GST-CA92 for CP binding; set-up: species or system chicken; conditions: 50 nM wild type CP pre-mixed with various concentrations of peptide (Figure S7)
# Procedure: as §2
# (0.25 MB TIF) Click here for additional data file.
substance,measurement,setting,value
"GST-CD47: GST fusion of human CD2AP residues 461–507 (FDSLTVRTSKETDVVNFDDIASSENLLHLTANRPKMPGRRLPGRFNG; also: GST fusion, end not given here)",kon,CP [1],1.6e+06 M⁻¹ s⁻¹
same,koff,CP [1]; pH 7.0,0.029 s⁻¹
V-1 D44R: V-1 point mutant Asp44 to Arg,KD,CPfull (CP wt),not detectable ^c
same,inhibition of CP capping activity by V-1 proteins,CPfull (wild type CP),little inhibitory effect; also recorded: minimal effects on CP capping
V-1 E78R: V-1 point mutant Glu78 to Arg,Kd,CPfull (CP wt),21 µM
same,inhibition of CP capping activity by V-1 proteins,CPfull (wild type CP),little inhibitory effect; also recorded: minimal effects on CP capping
V-1 W8A: V-1 point mutant Trp8 to Ala,inhibition of CP capping activity by V-1 proteins,CPfull (wild type CP),little inhibitory effect; also recorded: minimal effects on CP capping
"GST-CD44: GST fusion of human CD2AP residues 461–504 (FDSLTVRTSKETDVVNFDDIASSENLLHLTANRPKMPGRRLPGR; also: GST fusion, end not given here)",kon,CP [1],540000 M⁻¹ s⁻¹
same,koff,CP [1]; pH 7.0,0.033 s⁻¹
"CD23: synthetic peptide, human CD2AP residues 485–507 (CP-binding motif) (NLLHLTANRPKMPGRRLPGRFNG; UniProt Q9Y5K6 485-507, looked up, fragment)",facilitation of dissociation of CP from immobilized GST-V-1,"[2]; 45 nM CP wt perfused first, then 100 nM peptide, versus buffer control (Figure 11C)",CP dissociated from V-1 quite rapidly
same,inhibition of CP/V-1 complex formation,"[2]; GST-V-1 immobilized, 100 nM peptide premixed with 45 nM CP wt (Figure 11A)",strongly inhibited
same,inhibition of barbed end capping by CARMIL peptides,CPfull (wild type CP),moderately inhibited
same,competition with immobilized GST-CA92 for CP binding,CP [3],effectively compete
"GST-CD43: GST fusion of human CD2AP residues 461–503 (FDSLTVRTSKETDVVNFDDIASSENLLHLTANRPKMPGRRLPG; also: GST fusion, end not given here)",koff,CP [1]; pH 7.0,>0.1 s⁻¹
"GST-CA55: GST fusion of mouse CARMIL residues 962–1016 (FPSVRQEKRSSGLISELPSEEGRRLEHFTKLRPKRNKKQQPTQAAVCTISILPQD; also: GST fusion, end not given here)",koff,CP [1]; pH 7.0,>0.1 s⁻¹
same,KD (in words),"CP [1]; SPR, pH 7.0",micromolar range
"CD30: peptide with 7 extra residues at the C-terminus of CD23 (NLLHLTANRPKMPGRRLPGRFNGGHSPTHS; UniProt Q9Y5K6 485-514, looked up, fragment)",inhibition of barbed end capping by CARMIL peptides,CPfull (wild type CP),higher CP inhibition activity than CD23
